One assay deals with T1, ETB receptor (ETBR) (Homo sapiens, UniProt P24530).
T1 construct: gene EDNRB
T1 sequence (P24530 27-442): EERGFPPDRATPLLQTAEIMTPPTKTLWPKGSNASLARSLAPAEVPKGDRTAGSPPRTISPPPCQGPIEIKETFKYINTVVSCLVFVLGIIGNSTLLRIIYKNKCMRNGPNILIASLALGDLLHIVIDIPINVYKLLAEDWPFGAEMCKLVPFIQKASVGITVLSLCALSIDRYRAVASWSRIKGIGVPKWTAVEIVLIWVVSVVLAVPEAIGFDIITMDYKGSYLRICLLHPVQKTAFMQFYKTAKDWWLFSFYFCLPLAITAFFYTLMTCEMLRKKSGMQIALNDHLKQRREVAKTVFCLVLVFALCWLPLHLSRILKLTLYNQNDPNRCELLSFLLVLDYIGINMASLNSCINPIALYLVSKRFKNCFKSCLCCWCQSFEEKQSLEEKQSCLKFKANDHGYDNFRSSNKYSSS
Briefly: ET-1-induced intracellular calcium mobilization (Fluo-4) in HEK293/ETBR cells, antagonist mode. The format is cell-based.

A further assay deals with T2, ETA receptor (ETAR) (Homo sapiens, UniProt P25101).
T2 construct: gene EDNRA
T2 sequence (P25101 21-427): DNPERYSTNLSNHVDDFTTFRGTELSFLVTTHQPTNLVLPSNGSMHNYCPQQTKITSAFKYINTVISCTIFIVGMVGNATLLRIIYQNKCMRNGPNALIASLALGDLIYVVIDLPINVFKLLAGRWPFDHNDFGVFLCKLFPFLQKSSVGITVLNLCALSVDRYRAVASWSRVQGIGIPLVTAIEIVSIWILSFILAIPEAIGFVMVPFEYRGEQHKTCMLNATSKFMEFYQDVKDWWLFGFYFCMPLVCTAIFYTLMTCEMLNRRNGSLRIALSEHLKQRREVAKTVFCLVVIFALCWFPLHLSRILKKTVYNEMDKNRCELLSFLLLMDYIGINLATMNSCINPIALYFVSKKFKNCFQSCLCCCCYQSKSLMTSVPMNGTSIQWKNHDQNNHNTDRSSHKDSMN
Briefly: ET-1-induced intracellular calcium mobilization (Fluo-4) in HEK293/ETAR cells, antagonist mode. It is filed as cell-based. (In general: Calcium flux is commonly read through the fluorescence of an indicator in the cells.)

Like-named read-outs stand apart in the source and are kept apart here. Non-standard residues stand in square brackets, D forms with d. Residues, ends and D or L forms follow the SMILES beside them.

As a reminder, the IC50 is the concentration that gives 50% inhibition. Turning to `COc1cccc2c1cc([N+](=O)[O-])c1c(C(=O)O)cc3c(c12)OCO3` [Aristolochic acid A], the values for the IC50 at ETB receptor (ETBR) and on ETA receptor (ETAR) were 7.4 µM and 7.91 µM, respectively.
On to `CC(C)C[C@@H]1NC(=O)[C@@H](C(C)C)NC(=O)[C@@H]2CCCN2C(=O)[C@@H](CC(=O)O)NC(=O)[C@@H](Cc2c[nH]c3ccccc23)NC1=O` [BQ-123] (cyclo(L[dW][dD]P[dV])), for which the IC50 on ETA receptor (ETAR) was 0.00027 µM.
Regarding `CCCC[C@@H](NC(=O)[C@@H](Cc1cn(C(=O)OC)c2ccccc12)NC(=O)[C@H](CC(C)(C)C)NC(=O)N1[C@H](C)CCC[C@@H]1C)C(=O)O` [BQ-788], the IC50 on ETB receptor (ETBR) (read-out: IC50) turned out to be 5e-05 µM.

Values taken from article PMC4813245, “Discovery of Dual ETA/ETB Receptor Antagonists from Traditional Chinese Herbs through in Silico and in Vitro Screening” (International Journal of Molecular Sciences, 2016).
